# From patent US20100261796A1, “Use of Novel Compounds for IBD Treatment” (Ferring B.V., priority 2005, published 2010)
# Legend:
# DSS-induced colitis = experiment: Dextran sulfate sodium (DSS) colitis induction model; assay type: in vivo, mice; conditions: preventive treatment, 10^−1 mg/kg/d, 5% DSS for seven days
# Procedure: Mice were fed 5% DSS (molecular weight 30-40 kDa) for seven days. DSS was dissolved in sterile distilled water and given ad libitum throughout the experiment. Stool consistency, occult blood or the presence of macroscopic rectal bleeding gross were determined daily and blindly by two experiment investigators, as described previously (Hartmann et al., J Pharmacol Exp Ther., 292(1):22-30 (2000)). […] Bleeding was scored 0 point for no blood in hemoccult, 2 points for positive hemoccult, and 4 points for gross bleeding from the rectum. These scores were added, resulting in a total clinical score ranging from 0 (healthy) to 8 (maximal activity of colitis). […] For cell infiltration of inflammatory cells, rare inflammatory cells in the lamina propria were counted as 0; increased numbers of inflammatory cells, including neutrophils in the lamina propria as 1; confluence of inflammatory cells, extending into the submucosa as 2; and a score of 3 was given for transmural extension of the inflammatory cell infiltrate. For epithelial damage, absence of mucosal damage was counted as 0, discrete focal lymphoepithelial lesions were counted as 1, mucosal erosion/ulceration was counted as 2, and a score of 3 was given for extensive mucosal damage and extension through deeper structures of the bowel wall. […]
# TNBS-induced colitis = experiment: TNBS colitis induction model; assay type: in vivo, C57Bl/6 mice
# Procedure: Animals were housed ten per cage and had free access to standard mouse chow and tap water. For colitis induction, C57Bl/6 mice were anesthetized for 90-120 minutes and received an intra-rectal administration of TNBS (40 μL, 150 mg/kg; provided by Sigma-Aldrich, FR) dissolved in a 1:1 mixture of 0.9% NaCl with 100% ethanol. Control mice received a 1:1 mixture of 0.9% NaCl with 100% ethanol or a saline solution using the same technique. Animals were sacrificed 5 days after TNBS administration. The anti-inflammatory effects of compound 17 were tested by administering the compound once daily by subcutaneous injection, starting one day before colitis induction. Macroscopic, histology and biologic assessments of colitis were performed blindly by two investigators.
# The colon of each mouse was examined under a dissecting microscope (magnification, ×5) to evaluate the macroscopic lesions according to the established so-called Wallace criteria. The Wallace score rates macroscopic lesions on a scale from 0 to 10 based on features reflecting inflammation, such as hyperemia, thickening of the bowel, and extent of ulceration (Wallace, J. L. et al. Gastroenterology 96(1):29-36 (1989)). A colon specimen located 2 cm above the anal canal was cut into three parts, one of which was fixed in 4% paraformaldehyde and embedded in paraffin. Sections stained with May-Grunwald-Giemsa were examined blindly by two investigators and scored according to the so-called Ameho criteria (Ameho, C. K. et al. Gut 41(4):487-493 (1997)). This grading on a scale from 0 to 6 takes into account the degree of inflammation infiltrate, the presence of erosion, ulceration, or necrosis, and the depth and surface extension of lesions.
# Mice receiving TNBS injections had severe lesions five days after colitis induction, showing necrosis of the colon and leading to mortality in 70% of the mice. TNBS-induced colitis was characterized by hyperemia and extensive area of ulceration. These lesions were characterized by neutrophilic infiltration extending to the mucosa deep into the muscular layer. […]
structure (smiles),measurement,setting,value
"NC(=O)CCCN(CCCC1CCCCC1)C(=O)Nc1ccccc1 [Compound 17, 4-[1-(3-cyclohexylpropyl)-3-phenylureido]butyramide]","scores for clinical parameters (stool consistency + bleeding, 0 to 8)","DSS-induced colitis; untreated 3.7±0.14, P=0.003",2.8±0.13
same,histologic score (0 to 6),"DSS-induced colitis; untreated 5.8±0.13, P=0.001",3.9±0.39
same,"Ameho score (histology, scale 0 to 6)","TNBS-induced colitis; 10^−1 mg/kg/d subcutaneously once daily, starting one day before colitis induction, five days after TNBS administration, untreated TNBS mice 5.3±0.15",3.9±0.62
same,"Wallace score (macroscopic lesions, scale 0 to 10)","TNBS-induced colitis; 10^−1 mg/kg/d subcutaneously once daily, starting one day before colitis induction, five days after TNBS administration, untreated TNBS mice 7.0±0.37",3.8±0.89
same,mortality rates,"TNBS-induced colitis; 10^−1 mg/kg/d subcutaneously, TNBS-induced colitis, mortality in 70% of untreated TNBS mice",not associated with a significant improvement of mortality rates
